Usually IC50 stands for the concentration at which inhibition is half-maximal. In general, melting point refers to the temperature of the solid-liquid transition.

Results on three compounds are retold here after patent US7884123B2, “Substituted thieno[2,3-c]pyrazoles, process for preparing them, compositions containing them, and use thereof” (Aventis Pharma S.A., priority 2004, dated 2011).

For series [1], the target named is T1, Aurora2 (Homo sapiens, UniProt O14965).
T1 construct: A complete recombinant Aurora2 enzyme, the N-terminal of which was labeled with histidine, was expressed in E. coli; His tag (N); made in house; host or cells: E. coli
T1 sequence (O14965 1-403): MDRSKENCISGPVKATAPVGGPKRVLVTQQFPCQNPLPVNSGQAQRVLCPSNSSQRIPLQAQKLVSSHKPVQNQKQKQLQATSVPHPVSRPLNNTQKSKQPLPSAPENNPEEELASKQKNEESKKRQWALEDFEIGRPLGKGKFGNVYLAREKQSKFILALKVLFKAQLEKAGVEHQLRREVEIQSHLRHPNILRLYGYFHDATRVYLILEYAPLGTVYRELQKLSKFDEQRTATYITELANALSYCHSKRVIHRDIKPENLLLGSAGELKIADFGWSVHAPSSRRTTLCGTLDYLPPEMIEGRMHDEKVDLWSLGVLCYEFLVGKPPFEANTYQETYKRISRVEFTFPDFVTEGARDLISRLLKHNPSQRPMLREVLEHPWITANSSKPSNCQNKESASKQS
The series can be described thus: Aurora2 kinase radioactivity scintillation test using nickel chelate. It is filed as biochemical. On the procedure: The inhibitory effect of the compounds toward the kinase Aurora2 is determined via a radioactivity scintillation test using nickel chelate.
A complete recombinant Aurora2 enzyme, the N-terminal of which was labeled with histidine, was expressed in E. coli and purified to a quality close to homogeneity.
The C-terminal fragment (Q1687-H2101) of an NuMA (Nuclear protein which is associated with the Mitotic Apparatus) expressed in E. coli, and the N-terminal end of which was labeled with histidine, was purified by nickel chelate chromatography and used as substrate in the Aurora2 kinase test.
To determine the kinase activity, the substrate NuMA is equilibrated by chromatography on a PD10 Pharmacia column, in a buffer (50 mM Tris-HCl, pH 7.5, 50 mM NaCl, 10 mM MgCl2) supplemented with 10% (v/v) of glycerol and 0.05% (w/v) of NP40.
The kinase activity of Aurora2 is measured by scintillation with nickel chelate (New England Nuclear, SMP107 model). Each well contains 100 μl of the following solution: 0.02 μM of Aurora2; 0.5 μM of NuMA substrate; 1 μM of ATP supplemented with 0.5 μCi of ATP-[^33P]. The solutions are incubated for 30 minutes at 37° C. The test buffer is then removed and the wells are rinsed twice with 300 μl of kinase buffer. The radioactivity is measured in each well using a Packard Model Top Count NXT machine.
The background noise is deduced by measuring radioactivity measured in duplicate in wells containing the radioactive ATP alone containing buffered kinase treated in the same manner as for the other samples.
The activity of the control is determined by measuring in duplicate the radioactivity in the complete test mixture (ATP, Aurora2 and substrate NuMA), in the absence of test compound.
The inhibition of the activity of Aurora2 with a compound of the invention is expressed as a percentage of inhibition of the control activity in the absence of test compound. Staurosporin is added to each plate as inhibition control.
The activity of the products was determined by measuring the inhibition of Aurora2 activity.

The target of series [2] is T2, CDK2/cycline E (Homo sapiens, UniProt P24941).
T2 construct: made in house; host or cells: Sf21 insect cells (baculovirus coinfection)
The series can be described thus: CDK2/cyclineE Flashplate test in 96-well format. It is filed as biochemical. As to the method: Purification of the CDK2/cyclineE-(His)6 Complex by IMAC (Immobilized Metal Affinity Chromatography):
Two recombinant baculoviruses bearing the human sequences coding, respectively, for CDK2 and cyclineE (the latter bearing a C-terminal hexahistidine tag) are used to coinfect Sf21 insect cells. Two to three days after the start of coinfection, the cells are harvested by centrifugation and then stored at −40° C. until the time of use. After thawing and mechanical lysis of the cells, the complex present in the lysis supernatant is purified by affinity chromatography on nickel (IMAC), and stored at −80° C.
CDK2/cyclineE Flashplate Test in 96-Well Format.
A format in streptavidin-coated 96-well plates is used to test the activity of the compounds on the kinase activity of CDK2/cycline E.
To perform this test, the biotinylated peptide substrate, a fragment of the protein pRb (biotinyl-[…]—OH) (SEQ ID NO: 1), is dissolved at a concentration of 1 mM in kinase buffer (HEPES/NaOH 50 mM, NaCl 1 mM, MgCl2 5 mM, pH 7.5) in order to constitute a stock solution stored at −20° C. in the form of 110 μL aliquots. On the day of the experiment, an aliquot of this solution is thawed and diluted in kinase buffer containing 1 mM of dithiothreitol, added to the buffer extemporaneously, in order to obtain a concentration of 14.3 μM. 70 μL of this solution are added to each well of the Flashplate in order to obtain a final substrate concentration of 10 μM during the enzymatic reaction performed in a final volume of the reaction medium of 100 μL (cf. below).
Intermediate dilutions of inhibitors (products of the invention) at various concentrations are prepared in DMSO from stock solutions at 10 mM in separate tubes. […]
When the incubation is complete, the plate is washed three times with 300 μL per well of PBS (phosphate-buffered saline, pH=7.4, without calcium or magnesium, reference 10010-015, Gibco BRL). The incorporation of ^33P to the peptide is quantified by scintillation counting with a Packard Topcount.NXT machine. […]

Series [3] addresses T3, human Tie2 (Homo sapiens, UniProt Q02763).
T3 construct: amino acids of the intracellular domain 776-1124; made in house; host or cells: baculovirus expression (pFastBacGT vector)
The series can be described thus: Test of phosphorylation of PLC with Tie2 (GST-Tie2). It is filed as biochemical. On the procedure:
The coding sequence of human Tie2 corresponding to the amino acids of the intracellular domain 776-1124 was generated by PCR using the cDNA isolated from a human placenta as a model. This sequence was introduced into a pFastBacGT baculovirus expression vector in the form of a GST fusion protein.
The inhibitory effect of the molecules is determined in a test of phosphorylation of PLC with Tie2 in the presence of GST-Tie2 purified to about 80% homogeneity. The substrate is composed of the SH2-SH3 fragments of PLC expressed in the form of a GST fusion protein.
The kinase activity of Tie2 is measured in a MOPS 20 mM pH 7.2 buffer, containing 10 mM MgCl2, 10 mM MnCl2, 1 mM DTT, 10 mM of glycerophosphate. In a 96-well FlashPlate plate maintained on ice, a reaction mixture is deposited, composed of 70 μL of kinase buffer containing 100 ng of enzyme GST-Tie2 per well. Next, 10 μL of the test molecule diluted in DMSO to a maximum concentration of 10% are added. For a given concentration, each measurement is performed four times. The reaction is initiated by adding 20 μL of solution containing 2 μg of GST-PLC, 2 μm of cold ATP and 1 μCi of ^33P [ATP]. […] The radioactivity is measured on a MicroBeta1450 Wallac.
The inhibition of the Tie2 activity is calculated and expressed as a percentage of inhibition relative to the control activity determined in the absence of compound.

Counter-ions that a name gives are not always drawn.

T3 sequence (Q02763 776-1124): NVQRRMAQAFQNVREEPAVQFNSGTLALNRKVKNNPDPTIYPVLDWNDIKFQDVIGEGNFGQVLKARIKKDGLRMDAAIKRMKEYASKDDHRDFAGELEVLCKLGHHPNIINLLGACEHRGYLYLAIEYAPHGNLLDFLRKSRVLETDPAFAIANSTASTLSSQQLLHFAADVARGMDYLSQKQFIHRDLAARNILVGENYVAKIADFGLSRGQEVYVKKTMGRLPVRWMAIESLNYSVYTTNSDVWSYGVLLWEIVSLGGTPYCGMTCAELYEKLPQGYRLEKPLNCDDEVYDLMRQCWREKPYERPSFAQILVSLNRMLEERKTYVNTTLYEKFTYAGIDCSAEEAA

In the case of `O=C(NOc1ccccc1)c1cc2c(/C=C/c3ccccc3)n[nH]c2s1` [Example 2], the melting point was 142 °C. Further, the IC50 in series [1] was below 50 nM. The compound also had an IC50 in series [2] of 522 nM.
`O=C(NOc1ccccc1)c1cc2c(-c3cc4ccccc4[nH]3)n[nH]c2s1` [Example 1, 3-(1H-indol-2-yl)-1H-thieno[2,3-c]pyrazole-5-(N-phenoxycarboxamide)] returned a melting point of 171 °C. Besides, in series [1], the IC50 is below 50 nM. This compound registered an IC50 in series [2] below 100 nM.
With `O=C(Nc1n[nH]c2sc(C(=O)NOc3ccccc3)cc12)c1cccs1` [Example 3, 3-[(thiophene-2-carbonyl)amino]-1H-thieno[2,3-c]pyrazole-5-(N-phenoxycarboxamide)hydrochloride], the IC50 in series [1] was below 50 nM; in series [2], below 500 nM; in series [3] it was below 500 nM.
